What all share (assay): NCI anticancer screen, dose series, 48 h
Assay [1] relates to SR leukemia.
The subject of assay [2] is UACC-62 melanoma.
Assay [3] relates to NCI/ADR-RES ovarian.
The test system of assay [4] is SN12C renal.
In assay [5] the test system is T-47D breast.
In assay [6] the test system is LOX IMVI melanoma.
In assay [7] the test system is SF-268 CNS.
Assay [8] deals with SNB-19 CNS.
The test system of assay [9] is HT29 colon.
Assay [10] concerns HL-60(TB) leukemia.

SMILES strings stand for the structures.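 In this assay, cells in 96-well plates receive the compound at five concentrations for 48 hours. Endpoints are linearly interpolated between the surrounding concentrations. The concentration for 50% growth inhibition is given as GI50. TGI is the concentration that stops growth completely.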 Some results are limits rather than exact numbers.

As to `NC(=O)c1ccc(Oc2nccc(-c3c(-c4ccc(F)cc4)ncn3C3CCNCC3)n2)cc1`, the GI50 in assay [1], in assay [2], in [3], in assay [4], in assay [5] and in [6] was more than 25 µM throughout. Moreover, the GI50 in assay [7], in assay [8], in assay [9] and in assay [10] was more than 25 µM throughout. Also, the TGI in assay [1], in [2], in assay [3], in assay [4], in assay [5] and in assay [6] was more than 25 µM in each case. For the same compound, the TGI in assay [7], in assay [8], in [9] and in assay [10] was more than 25 µM each time.

With `Cc1c(C#N)cccc1[C@@H](C)Nc1nnc(C)c2cnc(N3CCOCC3)cc12`, the GI50 is 10.7 µM in assay [1]; 30.5 µM in assay [2]; 35.5 µM in assay [3]; 17.9 µM in assay [4]; 18.5 µM in assay [5]; 27.5 µM in [6]. For the same compound, the GI50 was 14.1 µM in assay [7], 25.3 µM in assay [8], 35.2 µM in assay [9] and 22.8 µM in assay [10]. In addition, the TGI in assay [1] was 92.1 µM; in assay [2], more than 100 µM; in assay [3], more than 100 µM; in assay [4], more than 100 µM; in [5], 81.3 µM; in assay [6], more than 100 µM. In addition, the TGI in assay [7] was more than 100 µM; in [8], more than 100 µM; in [9] it was more than 100 µM; in [10], 63.7 µM.

Turning to `CNCCCNc1nc2ccccc2c2c(=O)c3cc(OC)ccc3sc12`, the GI50 in [1] is 3.55 µM; in assay [2], 1.76 µM; in assay [3] it was 1.82 µM; in assay [4], 1.67 µM; in assay [5], 2.22 µM; in [6], 1.57 µM. Besides, the GI50 in assay [7] is 1.71 µM; in assay [8], 1.68 µM; in assay [9], 1.72 µM; in [10], 1.95 µM. Besides, the TGI is more than 100 µM in assay [1]; 3.27 µM in assay [2]; 3.64 µM in assay [3]; 3.28 µM in [4]; 5.61 µM in assay [5]; 2.93 µM in assay [6]. The TGI stood at 3.42 µM in [7], 3.18 µM in assay [8], 3.56 µM in [9] and 4.04 µM in assay [10].

As for `CCCCCCSSC(=S)N(CC)CC`, the GI50 is 0.0589 µM in assay [1]; 17.2 µM in [2]; 28.1 µM in assay [3]; 18.3 µM in assay [4]; 25.4 µM in assay [5]; 15.3 µM in assay [6]. In addition, the GI50 in assay [7] was 33.5 µM; in [8], 40.3 µM; in assay [9], 20.5 µM; in assay [10], 18.1 µM. The TGI is 29.1 µM in assay [1]; 36.9 µM in [2]; 96.5 µM in assay [3]; 40.3 µM in assay [4]; more than 100 µM in assay [5]; 33.1 µM in [6]. Also, the TGI in assay [7] is more than 100 µM; in assay [8] it was more than 100 µM; in assay [9] it was 38.8 µM; in assay [10], 52.3 µM.

Take `COc1ccccc1S(=O)(=O)Nc1ccc2c3c(cc(CCC(=O)NCCCCNc4cccc5c4C(=O)N(C4CCC(=O)NC4=O)C5=O)cc13)C(=O)N2C` (stereo not drawn): the GI50 was 0.248 µM in assay [1]; 13.4 µM in assay [2]; more than 100 µM in assay [3]; 0.462 µM in assay [4]; 0.0343 µM in assay [5]; 3.47 µM in assay [6]. Further, the GI50 in assay [7] was 0.317 µM; in assay [8], 0.427 µM; in assay [9], 3.84 µM; in [10], 0.0273 µM. For the same compound, the TGI was more than 52.5 µM in assay [1]; more than 100 µM in assay [2]; more than 100 µM in assay [3]; more than 100 µM in [4]; more than 100 µM in assay [6]; more than 100 µM in [7]. The TGI in [8] and in assay [9] was more than 100 µM throughout.

In the case of `COC(=O)Nc1nc2ccccc2[nH]1`, the TGI in [1] was more than 100 µM; in assay [2] it was more than 100 µM; in assay [3], 21 µM; in assay [4], more than 100 µM; in assay [5] it was more than 100 µM; in assay [6] it was more than 100 µM. Besides, the TGI in [7] is more than 100 µM; in assay [8], more than 100 µM; in assay [9], more than 100 µM; in [10] it was more than 31.2 µM.

For the origin of these results see PubChem BioAssay (NCI).
